Measurements: patent US20190322676A1, “CERAMIDE GALACTOSYLTRANSFERASE INHIBITORS FOR THE TREATMENT OF DISEASE” (BioMarin Pharmaceutical Inc., priority 2016, published 2019)
Structures can show the parent of a compound that is named as a salt.

The compounds below were run against T1, human CGT (ceramide galactosyltransferase), CHO/CGT lysate (Homo sapiens, UniProt Q16880) (assay: CGT enzyme assay, RapidFire/MS/MS readout with 0.01% Tween added (Table 1 ranges with two asterisks **)). Details: CGT enzymatic assay; range with two asterisks (**): RapidFire/MS/MS method with 0.01% Tween added.
T1 construct: Full-length human CGT cDNA was cloned into the BamH1/Xho1 site of pcDNA3.1 (+); expressed in transfected cells; host or cells: Chinese hamster ovary (CHO) cells; lysate prepared with M-PER
T1 sequence (Q16880 21-541): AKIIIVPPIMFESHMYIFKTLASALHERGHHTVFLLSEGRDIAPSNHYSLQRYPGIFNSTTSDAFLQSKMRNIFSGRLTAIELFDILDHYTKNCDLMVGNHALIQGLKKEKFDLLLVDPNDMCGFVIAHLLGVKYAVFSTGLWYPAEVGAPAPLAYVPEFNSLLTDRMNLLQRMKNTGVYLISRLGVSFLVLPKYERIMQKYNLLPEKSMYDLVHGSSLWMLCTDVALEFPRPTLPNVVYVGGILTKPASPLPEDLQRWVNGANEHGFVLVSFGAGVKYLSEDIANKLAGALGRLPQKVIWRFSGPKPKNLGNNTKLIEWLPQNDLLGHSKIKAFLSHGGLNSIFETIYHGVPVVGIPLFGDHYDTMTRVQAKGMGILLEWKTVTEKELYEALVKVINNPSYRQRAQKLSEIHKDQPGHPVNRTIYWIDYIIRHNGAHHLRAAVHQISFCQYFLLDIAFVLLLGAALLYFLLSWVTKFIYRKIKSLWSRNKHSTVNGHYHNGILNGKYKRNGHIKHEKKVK
Assay type: biochemical
Experimental: Full-length human CGT cDNA was cloned into the BamH1/Xho1 site of pcDNA3.1 (+) mammalian expression vector (V90-20, Invitrogen, Carlsbad, Calif.) and the plasmid was transfected into Chinese hamster ovary (CHO) cells. Lysate was prepared using M-PER (Mammalian Protein Extraction Reagent, ThermoFisher Scientific, Grand Island, N.Y.) in the presence of a protease inhibitor cocktail (P8340, Sigma, Saint Louis, Mo.). Each 100 mm dish (100% confluent, approximately 1×10^7 cells) was lysed with 250 μL of M-PER containing protease inhibitors. Protein concentration was determined using a Pierce BCA protein assay kit (ThermoFisher Scientific). Four micrograms of CHO/CGT lysate was incubated with various concentrations of a compound (0.001 μM-50 μM) in 10 mM HEPES (pH 7.2) containing 35 μM dioleoylphosphatidylcholine, 5 mM MgCl2, 5 mM MnCl2, 1% BSA, 15 mM KCl, 1 mM EGTA, 8 mM CHAPS, 10 μM C6-NBD-dihydro-ceramide and 17.5 μM UDP-galactose in a final reaction volume of 20 μL at 37° C. for 1 hour. The final concentration of DMSO was 0.5% in both compound-treated and mock-treated samples. Tween 80 (0.01%) was optionally added to the reaction mixture to help solubilize the compounds. Each individual reaction was diluted with 80 μL of methanol:acetronitrile (1:3) containing 5 μM N-docdecanoyl-NBD-galactosylceramide (internal standard) to stop the reaction. 200 μL H2O:acetonitile (1:1) was added to precipitate the protein. After sufficient mixing, the plates were centrifuged at 2469 g for 38 minutes, 200 μL of supernatant was transferred to a LC/MS 96-deep well plate and a second spin was performed at 2469 g for 10 minutes. The final supernatant was injected in triplicate for RapidFire/MS/MS analysis.
Quantitative Analysis Using the RapidFire/MS/MS Method:
The quantitative analysis of C6-NBD-dihydro-ceramide and C6-NBD-dihydro-galactosylceramide was performed on a Rapid Fire 360 high-throughput mass spectrometry system (Agilent Technologies, Palo Alto, Calif.) coupled with a API4000^+ triple quadrupole mass spectrometer (Applied Biosystems, Concord, Ontario, Canada). RapidFire software packages, including RapidFire Control panel, RapidFire UI and RapidFire Integrator (Agilent Technologies), were used to control the RapidFire instrument and to process data. Analyst 1.6.2 software packages (Applied Biosystems) were used to control the MS system and acquire MS data. […] of sample was loaded on a micro-scale C4 solid-phase extraction (SPE) cartridge (Agilent Technologies) and salts were removed using water supplemented with 0.1% formic acid at the flow rate of 1.5 mL/min for 3 sec. C6-NBD-dihydro-ceramide and C6-NBD-dihydro-galactosylceramide were co-eluted into the mass spectrometer using acetonitrile containing 0.1% formic acid at the flow rate of 1.0 mL/min for 3 sec. The total cycle time of one injection was 8 secs. The MS/MS detection was performed in ESI negative mode. The mass transition of C6-NBD-dihydro-galactosylceramide was m/z 752.6→678.6 using a −40 V collision energy, the mass transition of C6-NBD-dihydro-ceramide was m/z 590.6→115.8 using a −40 V collision energy and the mass transition of N-docdecanoyl-NBD-galactosylceramide was m/z 820.9→746.3 using a −45 V collision energy.
The C6-NBD-dihydro-galactosylceramide reading was normalized first by dividing the peak area of C6-NBD-dihydro-galactosylceramide by the peak area of the internal standard, N-docdecanoyl-NBD-galactosylceramide. IC50 values (see Table 1, where data ranges with one asterix (*) correspond to analysis using the RapidFire/MS/MS method, and data ranges with two asterixes (**) correspond to analysis using the RapidFire/MS/MS method with 0.01% Tween added) were generated from sigmoidal dose-response curves (variable slope) with GraphPad Prism software (GraphPad Software, Inc., San Diego, Calif.) using the normalized peak areas of C6-NBD-dihydro-galactosylceramide or the percent inhibition of C6-NBD-dihydro-galactosylceramide accumulation relative to DMSO control. […]

COc1cc(C(F)(F)[C@H](NS(=O)(=O)c2ccc(OCC3CCCCC3)cc2)C(=O)N2CCC(N)CC2)ccc1Br [Compound 145-1, (R)—N-(3-(4-aminopiperidin-1-yl)-1-(4-bromo-3-methoxyphenyl)-1,1-difluoro-3-oxopropan-2-yl)-4-(cyclohexylmethoxy)benzenesulfonamide trifluoroacetate] and COc1cc(C(F)(F)[C@H](NS(=O)(=O)c2ccc(OCC3CCCCC3)cc2)C(=O)N2CCC(N)CC2)ccc1-c1ccc(Cl)cc1 [Compound 146-1, (R)—N-(3-(4-aminopiperidin-1-yl)-1-(4′-chloro-2-methoxy-[1,1′-biphenyl]-4-yl)-1,1-difluoro-3-oxopropan-2-yl)-4-(cyclohexylmethoxy) benzenesulfonamide trifluoroacetate] cannot be ordered by IC50: under 1 µM for the first, under 1 µM for the second.

First: COc1cc(C(F)(F)[C@@H](NS(=O)(=O)c2ccc(OCC3CCCCC3)cc2)C(=O)N2CCC(N)CC2)ccc1-c1ccc(Cl)cc1 [Compound 146-2, (S)—N-(3-(4-aminopiperidin-1-yl)-1-(4′-chloro-2-methoxy-[1,1′-biphenyl]-4-yl)-1,1-difluoro-3-oxopropan-2-yl)-4-(cyclohexylmethoxy)benzenesulfonamide trifluoroacetate]
Second: O=C([C@@H](NS(=O)(=O)c1ccc2cc(OC3CCCC3)ccc2c1)C(F)(F)c1ccc(-c2ccc(Cl)cc2)cc1)N1C[C@H]2CNC[C@H]2C1 [Compound 147-1, N—((R)-1-(4′-chloro-[1,1′-biphenyl]-4-yl)-1,1-difluoro-3-((3aR,6aS)-hexahydropyrrolo[3,4-c]pyrrol-2(1H)-yl)-3-oxopropan-2-yl)-6-(cyclopentyloxy) naphthalene-2-sulfonamide trifluoroacetate]
The IC50 of the first is higher: 1 to 10 µM for the first, under 1 µM for the second. The second is the more potent here.

Work on O=C([C@H](NS(=O)(=O)c1ccc2cc(OC3CCCC3)ccc2c1)C(F)(F)c1ccc(-c2ccc(Cl)cc2)cc1)N1C[C@H]2CNC[C@H]2C1 [Compound 147-2, N—((S)-1-(4′-chloro-[1,1′-biphenyl]-4-yl)-1,1-difluoro-3-((3aR,6aS)-hexahydropyrrolo[3,4-c]pyrrol-2(1H)-yl)-3-oxopropan-2-yl)-6-(cyclopentyloxy)naphthalene-2-sulfonamide trifluoroacetate] yielded an IC50 of 10 to 30 µM.

Same assay, conditions: CGT enzyme assay, RapidFire/MS/MS method with 0.01% Tween added (range with two asterisks **)

First: COc1cc(C(F)(F)[C@@H](NS(=O)(=O)c2ccc3cc(OC4CCCC4)ccc3c2)C(=O)N2CCC(N)CC2)ccc1Br [Compound 143-2, (S)—N-(3-(4-aminopiperidin-1-yl)-1-(4-bromo-3-methoxyphenyl)-1,1-difluoro-3-oxopropan-2-yl)-6-(cyclopentyloxy) naphthalene-2-sulfonamide trifluoroacetate]
Second: COc1cc(C(F)(F)[C@H](NS(=O)(=O)c2ccc3cc(OC4CCCC4)ccc3c2)C(=O)N2CCC(N)CC2)ccc1-c1ccc(Cl)cc1 [Compound 144-1, (R)—N-(3-(4-aminopiperidin-1-yl)-1-(4′-chloro-2-methoxy-[1,1′-biphenyl]-4-yl)-1,1-difluoro-3-oxopropan-2-yl)-6-(cyclopentyloxy)naphthalene-2-sulfonamide trifluoroacetate]
The IC50 of the first is higher: 1 to 10 µM for the first, under 1 µM for the second.

First: COc1cc(C(F)(F)[C@@H](NS(=O)(=O)c2ccc3cc(OC4CCCC4)ccc3c2)C(=O)N2CCC(N)CC2)ccc1-c1ccc(Cl)cc1 [Compound 144-2, (S)—N-(3-(4-aminopiperidin-1-yl)-1-(4′-chloro-2-methoxy-[1,1′-biphenyl]-4-yl)-1,1-difluoro-3-oxopropan-2-yl)-6-(cyclopentyloxy) naphthalene-2-sulfonamide trifluoroacetate]
Second: COc1cc(C(F)(F)[C@@H](NS(=O)(=O)c2ccc(OCC3CCCCC3)cc2)C(=O)N2CCC(N)CC2)ccc1Br [Compound 145-2, (S)—N-(3-(4-aminopiperidin-1-yl)-1-(4-bromo-3-methoxyphenyl)-1,1-difluoro-3-oxopropan-2-yl)-4-(cyclohexylmethoxy) benzenesulfonamide trifluoroacetate]
The IC50 of the first is lower: 1 to 10 µM for the first, 30 to 100 µM for the second. The first is the more potent here.
